Results published in US5541175A, “Cephalosporin antibiotics” (Lucky, Ltd., priority 1993, dated 1996).
Values after ≈ are worked out from the molar mass of the structure shown. Like-named read-outs stand apart in the source and are kept apart here.

Key:
Assay in all cases: Minimum inhibitory concentration (agar 2-fold dilution)
Format in all cases: cell-based
[1] = system: Pseudomonas aeruginosa 6065; settings: read-out: Minimum Inhibitory Concentration
Procedure: (§1) The minimum inhibitory concentration was determined by diluting the test compounds according to 2-fold dilution, suspending them in Muller-Hinton agar medium, inoculating 2 μl of the suspension containing the test strains having 10^7 CFU (Colony Forming Unit) per 1 ml into the medium and then culturing the test strains at 37° C. for 20 hours.

[2] = system: Citrobacter diversus 2046E; settings: Citrobacter koseri, read-out: Minimum Inhibitory Concentration
Procedure: as §1

[3] = system: Escherichia coli TEM9 2639E; settings: TEM92639E, 20 h, read-out: Minimum Inhibitory Concentration
Procedure: as §1

[4] = system: Escherichia coli TEM1 1193E; settings: TEM11193E, 20 h, read-out: Minimum Inhibitory Concentration
Procedure: as §1

[5] = system: Staphylococcus aureus 241; settings: read-out: Minimum Inhibitory Concentration
Procedure: as §1

[6] = system: Escherichia coli TEM7 3457E; settings: TEM73457E, 20 h, read-out: Minimum Inhibitory Concentration
Procedure: as §1

[7] = system: Staphylococcus aureus giorgio; settings: read-out: Minimum Inhibitory Concentration
Procedure: as §1

[8] = system: Staphylococcus aureus epidermidis 887E; settings: read-out: Minimum Inhibitory Concentration
Procedure: as §1

[9] = system: Acinetobacter calcoaceticus 15473A; settings: read-out: Minimum Inhibitory Concentration
Procedure: as §1

[10] = system: Staphylococcus aureus 6538P; settings: read-out: Minimum Inhibitory Concentration
Procedure: as §1

[11] = system: Serratia marcescens 1826E; settings: read-out: Minimum Inhibitory Concentration
Procedure: as §1

Enterobacter cloacae P99 = settings: P99, 20 h, read-out: Minimum Inhibitory Concentration
Procedure: as §1

[12] = system: Klebsiella aerogenes K1 + 1082E; settings: 20 h, read-out: Minimum Inhibitory Concentration
Procedure: as §1

[13] = system: Escherichia coli TEM5 3739E; settings: TEM53739E, 20 h, read-out: Minimum Inhibitory Concentration
Procedure: as §1

Proteus vulgaris 6059A = settings: read-out: Minimum Inhibitory Concentration
Procedure: as §1

Escherichia coli 3190Y = settings: read-out: Minimum Inhibitory Concentration
Procedure: as §1

Staphylococcus aureus 77 = settings: read-out: Minimum Inhibitory Concentration
Procedure: as §1

[14] = system: Escherichia coli TEM3 3455E; settings: TEM33455E, 20 h, read-out: Minimum Inhibitory Concentration
Procedure: as §1

[15] = system: Pseudomonas aeruginosa 10145; settings: read-out: Minimum Inhibitory Concentration
Procedure: as §1

[16] = system: Enterobacter cloacae IND + VE 1194E; settings: read-out: Minimum Inhibitory Concentration
Procedure: as §1

[17] = system: Streptococcus faecalis 29212A; settings: Enterococcus faecalis, read-out: Minimum Inhibitory Concentration
Procedure: as §1

[18] = system: Salmonella typhimurium 14028A; settings: Salmonella enterica, read-out: Minimum Inhibitory Concentration
Procedure: as §1

Escherichia coli 10536 = settings: read-out: Minimum Inhibitory Concentration
Procedure: as §1

Escherichia coli 851E = settings: E. coli 851E, Muller-Hinton agar, 37° C., 20 hours
Procedure: as §1

[19] = system: Pseudomonas aeruginosa 1912E; settings: read-out: Minimum Inhibitory Concentration
Procedure: as §1

[20] = system: Klebsiella aerogenes SHV-1 1976E; settings: SHV11976E
Procedure: as §1

[21] = Pseudomonas aeruginosa, P. aeruginosa 6065, Muller-Hinton agar, 37° C., 20 hours
[22] = C. diversus 2046E, Muller-Hinton agar, 37° C., 20 hours
[23] = Staphylococcus aureus, S. aureus 241, Muller-Hinton agar, 37° C., 20 hours
[24] = S. aureus giorgio, Muller-Hinton agar, 37° C., 20 hours
[25] = S. aureus epidermidis 887E, Muller-Hinton agar, 37° C., 20 hours
[26] = A. calcoaceticus 15473A, Muller-Hinton agar, 37° C., 20 hours
[27] = S. aureus 6538P, Muller-Hinton agar, 37° C., 20 hours
[28] = S. marcescens 1826E, Muller-Hinton agar, 37° C., 20 hours
[29] = P. vulgaris 6059A, Muller-Hinton agar, 37° C., 20 hours
[30] = E. coli 3190Y, Muller-Hinton agar, 37° C., 20 hours
[31] = Staphylococcus aureus, S. aureus 77, Muller-Hinton agar, 37° C., 20 hours
[32] = Pseudomonas aeruginosa, P. aeruginosa 10145, Muller-Hinton agar, 37° C., 20 hours
[33] = E. cloacae IND + VE 1194E, Muller-Hinton agar, 37° C., 20 hours
[34] = S. faecalis 29212A, Muller-Hinton agar, 37° C., 20 hours
[35] = S. typhimurium 14028A, Muller-Hinton agar, 37° C., 20 hours
[36] = Escherichia coli, E. coli 10536, Muller-Hinton agar, 37° C., 20 hours
[37] = P. aeruginosa 1912E, Muller-Hinton agar, 37° C., 20 hours
[38] = K. aerogenes SHV-1 1976E, Muller-Hinton agar, 37° C., 20 hours

SMILES | MIC [1, 21] | MIC [2, 22] | MIC [3] | MIC [4] | MIC [5, 23] | MIC [6] | MIC [7, 24] | MIC [8, 25] | MIC [9, 26] | MIC [10, 27] | MIC [11, 28] | MIC (Enterobacter cloacae P99) | MIC [12] | MIC [13] | MIC (Proteus vulgaris 6059A; [29]) | MIC (Escherichia coli 3190Y; [30]) | MIC (Staphylococcus aureus 77; [31]) | MIC [14] | MIC [15, 32] | MIC (Escherichia coli 851E) | also measured
Nc1nc(/C(=N/O[C@@H](C(=O)O)c2ccc(O)c(O)c2)C(=O)N[C@@H]2C(=O)N3C(C(=O)[O-])=C(/C=C/C[n+]4cnc(N)c5c4CCC5)CS[C@H]23)cs1 [Compound I-3b, 7-[(Z)-2-(2-aminothiazol-4-yl)-2-(α-carboxy-3,4-dihydroxybenzyloxyimino)acetamido]-3-[(E)-3-(4-amino-5,6-cyclopentanopyrimidinium-1-yl)-1-propen-1-yl]-3-cephem-4-carboxylate] | 64 µg/mL (≈ 90.3 µM) | 4 µg/mL (≈ 5.64 µM) | 2 µg/mL (≈ 2.82 µM) | 0.25 µg/mL (≈ 0.353 µM) | > 128 µg/mL | 0.5 µg/mL (≈ 0.705 µM) | 0.5 µg/mL (≈ 0.705 µM) | 64 µg/mL (≈ 90.3 µM) | 4 µg/mL (≈ 5.64 µM) | 0.5 µg/mL (≈ 0.705 µM) | 4 µg/mL (≈ 5.64 µM) | 64 µg/mL (≈ 90.3 µM) | 1 µg/mL (≈ 1.41 µM) | 2 µg/mL (≈ 2.82 µM) | 1 µg/mL (≈ 1.41 µM) | 0.25 µg/mL (≈ 0.353 µM) | 4 µg/mL (≈ 5.64 µM) | 0.5 µg/mL (≈ 0.705 µM) | 8 µg/mL (≈ 11.3 µM) | 0.25 µg/mL (≈ 0.353 µM) | MIC [16, 33]: 32 µg/mL; MIC [17, 34]: 8 µg/mL (≈ 11.3 µM); MIC [18, 35]: 0.13 µg/mL (≈ 0.183 µM); MIC (Escherichia coli 10536; [36]): 0.13 µg/mL (≈ 0.183 µM); MIC [19, 37]: 8 µg/mL (≈ 11.3 µM); MIC [20, 38]: 1 µg/mL (≈ 1.41 µM)
Cc1c(N)nc[n+](C/C=C/C2=C(C(=O)[O-])N3C(=O)[C@@H](NC(=O)/C(=N\O[C@@H](C(=O)O)c4ccc(O)c(O)c4)c4csc(N)n4)[C@H]3SC2)c1N [Compound I-4b, 7-[(Z)-2-(2-aminothiazol-4-yl)-2-(α-carboxy-3,4-dihydroxybenzyloxyimino)acetamido]-3-[(E)-3-(4,6-diamino-5-methylpyrimidinium-1-yl)-1-propen-1-yl]-3-cephem-4-carboxylate] | 16 µg/mL (≈ 22.9 µM) | 4 µg/mL (≈ 5.73 µM) | 1 µg/mL (≈ 1.43 µM) | 0.25 µg/mL (≈ 0.358 µM) | 128 µg/mL (≈ 183 µM) | 0.25 µg/mL (≈ 0.358 µM) | 0.5 µg/mL (≈ 0.717 µM) | 32 µg/mL (≈ 45.9 µM) | 4 µg/mL (≈ 5.73 µM) | 0.5 µg/mL (≈ 0.717 µM) | 2 µg/mL (≈ 2.87 µM) | 16 µg/mL (≈ 22.9 µM) | 2 µg/mL (≈ 2.87 µM) | 1 µg/mL (≈ 1.43 µM) | 1 µg/mL (≈ 1.43 µM) | 0.13 µg/mL (≈ 0.186 µM) | 2 µg/mL (≈ 2.87 µM) | 0.5 µg/mL (≈ 0.717 µM) | 4 µg/mL (≈ 5.73 µM) | 0.13 µg/mL (≈ 0.186 µM) | MIC [16, 33]: 8 µg/mL; MIC [17, 34]: 8 µg/mL (≈ 11.5 µM); MIC [18, 35]: 0.13 µg/mL (≈ 0.186 µM); MIC (Escherichia coli 10536; [36]): 0.13 µg/mL (≈ 0.186 µM); MIC [19, 37]: 8 µg/mL (≈ 11.5 µM); MIC [20, 38]: 1 µg/mL (≈ 1.43 µM)
CC(C)(O/N=C(\C(=O)N[C@@H]1C(=O)N2C(C(=O)[O-])=C(C[n+]3ccccc3)CS[C@H]12)c1csc(N)n1)C(=O)O [CAZ, Ceftazidime, reference compound] | – | – | > 128 µg/mL | 0.25 µg/mL (≈ 0.457 µM) | – | 16 µg/mL (≈ 29.3 µM) | – | – | – | – | – | 64 µg/mL (≈ 117 µM) | 0.5 µg/mL (≈ 0.915 µM) | 8 µg/mL (≈ 14.6 µM) | – | – | – | 8 µg/mL (≈ 14.6 µM) | – | 0.063 µg/mL (≈ 0.115 µM) | MIC ([1]; Pseudomonas aeruginosa, 6065, 20 h): 16 µg/mL (≈ 29.3 µM); MIC ([2]; 2046E, 20 h): 0.5 µg/mL (≈ 0.915 µM); MIC ([5]; Staphylococcus aureus, 241, 20 h): > 128 µg/mL; MIC ([7]; 20 h): 4 µg/mL (≈ 7.32 µM); MIC ([8]; 20 h): > 128 µg/mL; MIC ([9]; 15473A, 20 h): 2 µg/mL (≈ 3.66 µM); MIC ([10]; 6538P, 20 h): 16 µg/mL (≈ 29.3 µM); MIC ([11]; 1826E, 20 h): 0.25 µg/mL (≈ 0.457 µM); MIC (Proteus vulgaris 6059A; 6059A, 20 h): 0.063 µg/mL (≈ 0.115 µM); MIC (Escherichia coli 3190Y; 3190Y, 20 h): 0.063 µg/mL (≈ 0.115 µM); MIC (Staphylococcus aureus 77; Staphylococcus aureus, 77, 20 h): 32 µg/mL (≈ 58.5 µM); MIC ([15]; Pseudomonas aeruginosa, 10145, 20 h): 2 µg/mL (≈ 3.66 µM); MIC ([16]; 20 h): 128 µg/mL (≈ 234 µM); MIC ([17]; 29212A, 20 h): > 128 µg/mL; MIC ([18]; TYPHIMURIUM, 20 h): 0.25 µg/mL (≈ 0.457 µM); MIC (Escherichia coli 10536; Escherichia coli, 10536, 20 h): 0.13 µg/mL (≈ 0.238 µM); MIC ([19]; 1912E, 20 h): 1 µg/mL (≈ 1.83 µM); MIC ([20]; 20 h): 0.25 µg/mL (≈ 0.457 µM)
